Experimental data from patent publication US11667675B2, “MASP inhibitory compounds and uses thereof” (Bayer Aktiengesellschaft, priority 2019, dated 2023).
Where a name gives a salt, the structure may show the parent alone. Bridge positions count the residues as written; N and C are the ends. Square brackets hold non-standard residues; d marks the D form. Peptide text beside a SMILES is read from it. PEG9 = NCCOCCOCCOCCOCCOCCOCCOCCOCCOCCC(=O)O; Pro(4-spirocPr) = O=C(O)[C@@H]1CC2(CC2)CN1; tBuAla = CC(C)(C)C[C@H](N)C(=O)O; Pen = CC(C)(S)[C@H](N)C(=O)O; NMeC = CN[C@@H](CS)C(=O)O; Sar = CNCC(=O)O

What was measured:
rat MASP2 = biological target: T1, rat MASP2 (Rattus norvegicus, UniProt Q9JJS8); experiment: Biochemical rat MASP2 assay (FRET substrate); details: average IC50; recombinant rat MASP2, FRET substrate
T1 construct: Ig-kappa secretion signal (N, cleaved yes); made in house; host or cells: HEK293 (ATCC No. CRL-1573)
T1 sequence (Q9JJS8 296-443): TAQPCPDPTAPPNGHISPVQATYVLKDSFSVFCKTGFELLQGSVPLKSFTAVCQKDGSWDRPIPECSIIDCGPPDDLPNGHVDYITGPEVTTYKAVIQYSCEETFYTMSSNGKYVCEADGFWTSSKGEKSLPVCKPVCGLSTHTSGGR
T1 sequence (Q9JJS8 444-685): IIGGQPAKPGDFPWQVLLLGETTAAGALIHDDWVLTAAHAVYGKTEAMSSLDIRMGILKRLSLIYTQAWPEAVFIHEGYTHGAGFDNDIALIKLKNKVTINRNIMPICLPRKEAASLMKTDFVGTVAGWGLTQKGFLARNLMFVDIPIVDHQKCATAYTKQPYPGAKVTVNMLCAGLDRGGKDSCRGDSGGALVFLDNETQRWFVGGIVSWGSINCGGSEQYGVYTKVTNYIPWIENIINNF
Source text: (§1) 4. Biochemical Rat MASP-1 and MASP-2 Assay
(§2) 4.1 Recombinant Expression and Protein Production of Recombinant Human and Rat MASP1 and MASP2 Active Proteases.
(§3) The MASP1 or MASP2 expression vectors were transfected into the HEK293 (ATCC No. CRL-1573) cell line using Lipofectamine LTX® Reagent (Thermo-Fischer), as described by the manufacturer. The mature form of the recombinant rat MASP1 and MASP2 proteases were secreted into the culture medium. The MASP1 and MASP2 proteins were purified from the conditioned media by affinity chromatography on Ni-NTA Superflow resin (Qiagen) as described by the manufacturer.
4.3 Biochemical Rat MASP2 Assay.
(§4) Recombinant rat MASP2 enzyme produced in the HEK 293 cells was diluted in the reaction buffer (50 mM HEPES pH 8,0; 100 mM NaCl; 0.01% CHAPS; 0.5 mM Gluthathione) to the concentration of 20 nM and 25 μl was transferred into each single well of 384-well white microtiter plate (Greiner Bio One 781075). 1 μl of the inhibitor compound solution (dissolved in DMSO, at the corresponding concentration) or pure DMSO as a control was added to the same wells. The enzymatic reaction was initiated by addition of 25 μl of 30 μM solution of the FRET substrate Abz-IEGRTSED-(Lys)Dnp-NH2 (SEQ ID NO: 9); (ABZ—2-aminobenzoyl; DNP_2,4-dinitrophenyl; custom synthesis by Jerini Peptide Technologies, Berlin) in the reaction buffer. The microtiter plate was incubated for 60-120 min at the temperature of 32 C. The increase of fluorescence intensity was measured in appropriate fluorescence plate reader (e.g. TECAN Ultra) using excitation wavelength of 320 nm and emission wavelength of 420 nm. IC50 values were calculated from percentage of inhibition of rat MASP2 activity as a function of test compound concentration.

rat MASP1 = biological target: T2, rat MASP1 (Rattus norvegicus, UniProt Q8CHN8); experiment: Biochemical rat MASP1 assay (FRET substrate); details: average IC50; recombinant rat MASP1, FRET substrate
T2 construct: Ig-kappa secretion signal (N, cleaved yes); made in house; host or cells: HEK293 (ATCC No. CRL-1573)
T2 sequence (Q8CHN8 302-453 limits assumed): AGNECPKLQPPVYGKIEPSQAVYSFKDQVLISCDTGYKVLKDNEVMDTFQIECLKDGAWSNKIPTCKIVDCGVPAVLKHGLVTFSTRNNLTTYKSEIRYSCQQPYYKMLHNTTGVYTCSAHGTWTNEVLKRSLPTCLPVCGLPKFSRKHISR
T2 sequence (Q8CHN8 454-704 limits assumed): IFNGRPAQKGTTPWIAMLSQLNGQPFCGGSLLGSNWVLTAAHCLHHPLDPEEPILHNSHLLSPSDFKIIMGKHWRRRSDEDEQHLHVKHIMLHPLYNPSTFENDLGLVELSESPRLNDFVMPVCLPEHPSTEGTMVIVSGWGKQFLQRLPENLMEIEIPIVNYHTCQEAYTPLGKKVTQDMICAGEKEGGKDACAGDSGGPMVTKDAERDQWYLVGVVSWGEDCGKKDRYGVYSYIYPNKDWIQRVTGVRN
Source text: as §1, §2
A truncated cDNA sequence of rat MASP1 encoding the fragment corresponding to the amino acids 302-704 with an C-terminal His Tag and N-terminal Ig-kappa secretion signal (SEQ ID No: 4) was subcloned into the mammalian expression vector pcDNA3.1 (Invitrogen).
as §3
4.2 Biochemical Rat MASP1 Assay.
Recombinant rat MASP1 enzyme produced in the HEK 293 cells was diluted in the reaction buffer (50 mM HEPES pH 8,0; 100 mM NaCl; 0.01% CHAPS; 0.5 mM Gluthathione) to the concentration of 4 nM and 25 μl was transferred into each single well of 384-well white microtiter plate (Greiner Bio One 781075). 1 μl of the inhibitor compound solution (dissolved in DMSO, at the corresponding concentration) or pure DMSO as a control was added to the same wells. The enzymatic reaction was initiated by addition of 25 μl of 40 μM solution of the FRET substrate Dabcyl-[…]-Glu(Edans)-NH2 (SEQ ID NO: 8); (Dabcyl—4-((4-(dimethylamino)phenyl)azo)benzoic acid; Edans—5-[(2-Aminoethyl) amino]naphthalene-1-sulfonyl; custom synthesis by Jerini Peptide Technologies, Berlin) in the reaction buffer. The microtiter plate was incubated for 60-120 min at the temperature of 32 C. The increase of fluorescence intensity was measured in appropriate fluorescence plate reader (e.g. TECAN Ultra) using excitation wavelength of 340 nm and emission wavelength of 490 nm. IC50 values were calculated from percentage of inhibition of rat […] activity as a function of test compound concentration.

Human C3-[…] = experiment: C3 deposition assay, human serum on mannan-coated plates; format: biochemical; details: average IC50, read-out: Human C3-DEPOSITION SERUM IC50
Description: (§5) 3. C3 Deposition Assay (Human, Rat, Mouse, Dog, Mini-Pig)
(§6) The C3 deposition assay was conducted essentially as described (reference). Multi well plates (Greiner-Nunc 384 Maxi Sorp #464718) were coated over night with Mannan from Saccharomyces cerevisiae (Sigma M7504, 10 μg/mL in 0.05 M carbonate-bicarbonate buffer, pH 9.6) at 4° C. Wells were washed three times with TBS and subsequently incubated for 2 hours with 50 μL of 1% bovine serum albumin (BSA) in Tris-buffered saline (TBS) at 37° C. in order to block non-specific binding. After this step and each of the following incubation steps wells were washed three times with C3 wash buffer (TBS; 0.05% Tween 20; 5 mM CaCl2). […] When appropriately developed the color reaction was stopped by addition of 25 μL of stop solution (Sigma S5814) and quantified on a photometer by measuring absorption at a wavelength of 450 nm. Antibodies were diluted in C3 wash buffer supplemented with 0.5% BSA.

rat C3-[…] = experiment: C3 deposition assay, rat serum on mannan-coated plates; format: biochemical; details: average IC50
Description: as §5, §6

human MASP1 = biological target: T3, human MASP1 (Homo sapiens, UniProt P48740); experiment: Biochemical human MASP1 assay (FRET substrate); details: average IC50
T3 construct: Ig-kappa secretion signal (N, cleaved yes); made in house; host or cells: HEK293 (ATCC No. CRL-1573)
T3 sequence (P48740 297-448): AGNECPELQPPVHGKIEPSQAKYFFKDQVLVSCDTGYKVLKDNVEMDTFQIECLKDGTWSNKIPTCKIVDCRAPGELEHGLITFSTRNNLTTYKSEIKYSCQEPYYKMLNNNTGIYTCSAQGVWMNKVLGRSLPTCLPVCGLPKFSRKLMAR
T3 sequence (P48740 449-699): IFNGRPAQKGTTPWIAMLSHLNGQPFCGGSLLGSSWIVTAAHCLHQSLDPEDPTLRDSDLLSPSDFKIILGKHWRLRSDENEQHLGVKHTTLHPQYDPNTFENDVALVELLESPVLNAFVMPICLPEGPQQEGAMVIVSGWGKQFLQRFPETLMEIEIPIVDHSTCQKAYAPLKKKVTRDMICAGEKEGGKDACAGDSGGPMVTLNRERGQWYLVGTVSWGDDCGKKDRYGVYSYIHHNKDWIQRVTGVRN
Source text: (§7) 2.1 Recombinant Expression and Protein Production of Recombinant Human MASP1 and MASP2 Active Proteases.
as §3, with “The mature form of the recombinant rat MASP1 and MASP2 proteases were secreted into the culture medium.” left out
2.2 Biochemical Human MASP1 Assay
as §4, with “human MASP1” for “rat MASP2”, “The enzymatic reaction was initiated by addition of 25 μl of 30 μM solution of the FRET substrate Abz-IEGRTSED-(Lys)Dnp-NH2 (SEQ ID NO: 9); (ABZ—2-aminobenzoyl; DNP_2,4-dinitrophenyl; custom synthesis by Jerini Peptide Technologies, Berlin) in the reaction buffer.” left out

human MASP2 = biological target: T4, human MASP2 (Homo sapiens, UniProt O00187); experiment: Biochemical human MASP2 assay (FRET substrate); details: average IC50
T4 construct: Ig-kappa secretion signal (N, cleaved yes); made in house; host or cells: HEK293 (ATCC No. CRL-1573)
T4 sequence (O00187 297-444): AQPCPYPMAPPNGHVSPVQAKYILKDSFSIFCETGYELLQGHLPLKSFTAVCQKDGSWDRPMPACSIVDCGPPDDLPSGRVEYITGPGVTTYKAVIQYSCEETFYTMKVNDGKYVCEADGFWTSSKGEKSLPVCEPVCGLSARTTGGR
T4 sequence (O00187 445-686): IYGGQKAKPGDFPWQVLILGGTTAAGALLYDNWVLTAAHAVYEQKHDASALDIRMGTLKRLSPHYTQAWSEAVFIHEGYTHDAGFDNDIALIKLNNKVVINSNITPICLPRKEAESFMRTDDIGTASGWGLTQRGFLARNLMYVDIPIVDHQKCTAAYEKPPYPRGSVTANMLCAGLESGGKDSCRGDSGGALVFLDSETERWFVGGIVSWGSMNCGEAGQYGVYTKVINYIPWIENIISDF
Source text: as §7
as §3, with “The mature form of the recombinant rat MASP1 and MASP2 proteases were secreted into the culture medium.” left out
2.3 Biochemical Human MASP2 Assay
as §4, with “Recombinant human” for “Recombinant rat”, “wells. […]” for “wells. The enzymatic reaction was initiated by addition of 25 μl of 30 μM solution of the FRET substrate Abz-IEGRTSED-(Lys)Dnp-NH2 (SEQ ID NO: 9); (ABZ—2-aminobenzoyl; DNP_2,4-dinitrophenyl; custom synthesis by Jerini Peptide Technologies, Berlin) in the reaction buffer.”, “of 340” for “of 320”, “of 490” for “of 420”, “of human” for “of rat”

Molecule | IC50 (rat MASP2) | IC50 (rat MASP1) | IC50 (Human C3-[…]) | IC50 (rat C3-[…]) | IC50 (human MASP1) | IC50 (human MASP2)
CC[C@H](C)[C@H](NC(=O)[C@H](C)N)C(=O)N[C@H]1CSSC(C)(C)[C@@H](C(=O)N[C@H](C(=O)N2CCC[C@H]2C(=O)N[C@@H](CC(=O)O)C(=O)O)[C@@H](C)CC)NC(=O)[C@H]([C@@H](C)CC)NC(=O)[C@@H]2C[C@@H]3CCCC[C@@H]3N2C(=O)[C@@H]2CCCN2C(=O)[C@H](CC(C)C)NC(=O)[C@H](CO)NC(=O)[C@H](CCCNC(=N)N)NC(=O)[C@H](CO)NC1=O [Example 29, AIC+SRSLP-(Oic)-I-(Pen)+IPD-OH (HCl Salt)] | 17.4 nM | 10.5 nM | 6.99 nM | 196 nM | 2.45 nM | 
AIC+SRSLP-(Oic)-I-(Pen)+IPD-NH2 [Example 27] |  |  | 8.5 nM | 146 nM |  | 
CC[C@H](C)[C@H](NC(=O)[C@H](C)N)C(=O)N[C@H]1CSSC(C)(C)[C@@H](C(=O)N[C@H](C(=O)N2CCC[C@H]2C(=O)N[C@@H](CC(=O)O)C(N)=O)[C@@H](C)CC)NC(=O)[C@H]([C@@H](C)CC)NC(=O)[C@@H]2CC3(CC3)CN2C(=O)[C@@H]2CCCN2C(=O)[C@H](CC(C)(C)C)NC(=O)[C@H](CO)NC(=O)[C@H](CCCNC(=N)N)NC(=O)[C@H](CO)NC1=O [Example 45, AI-C+SRS-((tBu)A)-P-((6S)-5-Azaspiro[2.4]heptane-6-carboxylic acid)-I(Pen)+IPD-NH2] (H-AICSRS[tBuAla]P[Pro(4-spirocPr)]I[Pen]IPD-NH2; disulfide 3-11) |  | 40 nM | 18.6 nM |  | 1.83 nM | 24.5 nM
CCC(C)[C@H](NC(=O)[C@H]1NC(=O)[C@H]([C@@H](C)CC)NC(=O)[C@@H]2C[C@@H]3CCCC[C@@H]3N2C(=O)[C@@H]2CCCN2C(=O)[C@H](CC(C)C)NC(=O)[C@H](CO)NC(=O)[C@H](CCCNC(=N)N)NC(=O)[C@H](CO)NC(=O)[C@@H](NC(=O)[C@@H](NC(=O)[C@H](C)NC)[C@@H](C)CC)CSSC1(C)C)C(=O)N1CCC[C@H]1C(=O)N[C@@H](CC(=O)NCc1ccccc1)C(N)=O (stereo in doubt) [Example 462] | 150 nM | 160 nM | 61 nM |  | 12 nM | 
CC[C@H](C)[C@H](NC(=O)CNC)C(=O)N[C@H]1CSSC(C)(C)[C@@H](C(=O)N[C@H](C(=O)N2CCC[C@H]2C(=O)NCCOCCOCCOCCOCCOCCOCCOCCOCCOCCC(N)=O)[C@@H](C)CC)NC(=O)[C@H]([C@@H](C)CC)NC(=O)[C@@H]2CCCN2C(=O)[C@@H]2CCCN2C(=O)[C@H](CC(C)(C)C)NC(=O)[C@H](CO)NC(=O)[C@H](CCCNC(=N)N)NC(=O)[C@H](CO)NC1=O [Example 44, ((N-Me)G)-IC+SRS-((tBu)A)-PPI-(Pen)+IP-(PEG9(31 Atoms))-NH2] (H-[Sar]ICSRS[tBuAla]PPI[Pen]IP[PEG9]-NH2; disulfide 3-11) | 35 nM | 87 nM | 68.5 nM |  |  | 73 nM
CC[C@H](C)[C@H](NC(=O)[C@H](C)N)C(=O)N[C@H]1CSSC[C@@H](C(=O)N[C@H](C(=O)N2CCC[C@H]2C(=O)N[C@@H](CC(=O)O)C(N)=O)[C@@H](C)CC)N(C)C(=O)[C@H]([C@@H](C)CC)NC(=O)[C@@H]2CCCN2C(=O)[C@@H]2CCCN2C(=O)[C@H](CC(C)(C)C)NC(=O)[C@H](CO)NC(=O)[C@H](CCCNC(=N)N)NC(=O)[C@H](CO)NC1=O [Example 48, AIC+SRS-((tBu)A)-PPI-((N-Me)C)+IPD-NH2] (H-AICSRS[tBuAla]PPI[NMeC]IPD-NH2; disulfide 3-11) |  | 51.5 nM | 102 nM |  | 1.95 nM | 225 nM
AIC+SRSLP-(Oic)-I-(Pen)+IPD-OH [Example 5] |  |  | 10.3 nM | 214 nM |  | 
